The term IC50 denotes the concentration needed to halve the response being measured.

Read-outs that look alike come from different tables or passages of the source. Marks after values point to notes of the source that are not given here.

The test system of test [1] is drug-sensitive and resistant asexual blood stage Pf. Nature of the test: Asexual blood stage activity over all strains (abstract). The following applies: Plasmodium falciparum, read-out: IC50 asexual blood stage Pf. Type of test: cell-based. As for the experimental part:
(§1) DHA, artesunate, artemether, chloroquine (CQ), and methylene blue (MB) were used as reference drugs. All assay conditions are as previously described ([Coertzen et al., 2018]; [Wong et al., 2019]). Compound working solutions were prepared from a 10 mM stock solution in 100% (v/v) dimethyl sulfoxide (DMSO; Sigma-Aldrich) in AlbuMAX II supplemented RPMI 1640 medium with a final DMSO concentration of 0.1% (v/v), shown to be nontoxic to be nontoxic to intraerythrocytic asexual blood stage parasites ([Coertzen et al., 2018]). Dose-responses were determined using a 2-fold serial drug dilution on in vitro 95% ring-stage intraerythrocytic Pf parasites (1% parasitemia, 1% hematocrit) at 37°C under 90% N2, 5% CO2, and 5% O2 atmospheric conditions, detecting SYBR green I fluorescence as a marker for parasite proliferation following a 96 h drug treatment ([Smilkstein et al., 2004]; [Verlinden et al., 2011]). Activity against the Pf drug-sensitive NF54 strain and the multi drug-resistant K1 (resistant to CQ, quinine, pyrimethamine, and cycloguanil), and W2 (resistant to CQ, quinine, pyrimethamine, and cycloguanil) strains was evaluated. […] Data analysis was performed using GraphPad Prism (version 6) software, intra-assay variability was monitored with Z-factors, and acceptable inter-assay reproducibility was determined from the percent coefficient of variation (CV) ([Reader et al., 2015]). […]

For test [2], the system named is immature stage II-III P. falciparum NF54 gametocytes. Nature of the test: Luciferase reporter gametocytocidal assay, immature gametocytes. The format is cell-based, Plasmodium falciparum. The following applies: this study. As for the experimental part:
(§2) In vitro cultivation of asexual and gametocyte P. falciparum parasites: P. falciparum asexual blood stage parasites were cultivated in human erythrocytes in RPMI-1640 media supplemented with AlbuMax II under sterile conditions and in a hypoxic environment (90% N2, 5% CO2, and 5% O2) at 37°C as described previously ([Coertzen et al., 2018]; [Wong et al., 2019]). Gametocytes were produced from asexual blood stage parasites in a stage-specific manner through induction of cellular stress as described previously ([Reader et al., 2015]; [Coertzen et al., 2018]; [Wong et al., 2019]; [Reader et al., 2022]).
Untreated and 5 μM MB-treated immature and late-stage gametocytes were included as positive and negative controls. MB and artemisone were included as internal reference standards. In all cases, an interference assay to eliminate false positives from possible compound interference with the luciferase readout was run in parallel. […]
(§3) Stage-specific activities of celastrol against immature (stage II-III) and late stage (stage IV-V) gametocytes were determined with the luc reporter line as described previously ([Coertzen et al., 2018]; [Wong et al., 2019]). Also included in Table 2 for direct comparison of activities with celastrol are gametocytocidal data for MB, artemisone and the artemisinin derivatives recorded previously ([Coertzen et al., 2018]; [Wong et al., 2019]).

For test [3], the system named is asexual blood stage P. falciparum K1 (multidrug resistant). Nature of the test: SYBR Green I proliferation assay, asexual blood stage Pf K1. Type of test: cell-based, Plasmodium falciparum. The method, then: as §2
DHA, artesunate, artemether, chloroquine (CQ), and methylene blue (MB) were used as reference drugs. […] Dose-responses were determined using a 2-fold serial drug dilution on in vitro 95% ring-stage intraerythrocytic Pf parasites (1% parasitemia, 1% hematocrit) at 37°C under 90% N2, 5% CO2, and 5% O2 atmospheric conditions, detecting SYBR green I fluorescence as a marker for parasite proliferation following a 96 h drug treatment ([Smilkstein et al., 2004]; [Verlinden et al., 2011]). Activity against the Pf drug-sensitive NF54 strain and the multi drug-resistant K1 (resistant to CQ, quinine, pyrimethamine, and cycloguanil), and W2 (resistant to CQ, quinine, pyrimethamine, and cycloguanil) strains was evaluated. […]

Test [4] has as its system late stage IV-V P. falciparum NF54 gametocytes. Nature of the test: Luciferase reporter gametocytocidal assay, late stage gametocytes. Type of test: cell-based, Plasmodium falciparum. The following applies: for IC50: Plasmodium falciparum; for Fold change preference ratio LG to EG: late vs immature stage gametocytes. The method, then: as §2
Untreated and 5 μM MB-treated immature and late-stage gametocytes were included as positive and negative controls. MB and artemisone were included as internal reference standards. In all cases, an interference assay to eliminate false positives from possible compound interference with the luciferase readout was run in parallel. Unless otherwise indicated, data are from technical triplicates, performed for three biological replicates. Complete dose-response curves are given in the (Supplementary Figures S2A,B).
as §3
On the technique in general: A reporter such as luciferase makes a cellular process visible.

The test system of test [5] is multidrug resistant Pf K1 strain. The conditions noted are these: tritiated hypoxanthine assay; ref Figueiredo et al., 1998; Li et al., 2019; cited from earlier work.
In test [6] the test system is asexual blood stage P. falciparum NF54 (drug sensitive). Nature of the test: SYBR Green I proliferation assay, asexual blood stage Pf NF54. The format is cell-based. The conditions noted are these: Plasmodium falciparum, read-out: IC50 NF54. The method, then:
as §2
as §1, with “Compound working solutions were prepared from a 10 mM stock solution in 100% (v/v) dimethyl sulfoxide (DMSO; Sigma-Aldrich) in AlbuMAX II supplemented RPMI 1640 medium with a final DMSO concentration of 0.1% (v/v), shown to be nontoxic to be nontoxic to intraerythrocytic asexual blood stage parasites ([Coertzen et al., 2018]).” left out
Activity was determined using the SYBR Green I based fluorescence assay on asexual blood stages of the NF54 (drug sensitive), K1 and W2 (drug resistant) strains of P. falciparum. […] Also included in Table 1 for direct comparison of activities against celastrol are data for the internal reference standards MB and artemisone recorded at the same time as for celastrol. […]

Test [7] relates to immature stage II-III P. falciparum NF54 gametocytes. Details: method as in Coertzen et al., 2018, Wong et al., 2019. The conditions noted are these: ref Coertzen et al., 2018, Wong et al., 2019, cited from earlier work.
Test [8] has as its system asexual blood stage P. falciparum W2 (multidrug resistant). Details: method as in Coertzen et al., 2018; Wong et al., 2019. The conditions noted are these: ref Coertzen et al., 2018, Wong et al., 2019, cited from earlier work.
Test [9] relates to asexual blood stage P. falciparum K1 (multidrug resistant). The conditions noted are these: ref Coertzen et al., 2018, Wong et al., 2019, cited from earlier work.
For test [10], the system named is asexual blood stage P. falciparum NF54 (drug sensitive). Also on record: method as in Coertzen et al., 2018; Wong et al., 2019. The following applies: SYBR Green I, mean ± SEM, ref Coertzen et al., 2018, Wong et al., 2019; cited from earlier work.
In a further test the test system is tumour cell lines. Details: method as in earlier work. The following applies: range over cell lines; ref Gravett et al., 2011; Hooft van Huijsduijnen et al., 2013; Dwivedi et al., 2015; Wu et al., 2018; Wong et al., 2020; read-out: IC50 against tumour cell lines; cited from earlier work.
A further test concerns A375 melanoma cells. Also on record: method as in Wong et al., 2020. The conditions noted are these: ref Wong et al., 2020; cited from earlier work.
The mark [11] stands for this setting: immature vs late stage gametocytes.
[12] abbreviates: asexual blood stage, SYBR Green I, mean ± SEM.

For the compound `CC1=C(O)C(=O)C=C2C1=CC=C1[C@@]2(C)CC[C@@]2(C)[C@@H]3C[C@](C)(C(=O)O)CC[C@]3(C)CC[C@]12C` [Celastrol, celastrol], the IC50 in test [1] was 500 to 820 nM; in test [2] (Plasmodium falciparum, NF54 gametocytes, luciferase, 48 h, mean ± SEM, read-out: Immature stage II-III (luc 48 h) IC50), 1160 nM; in test [3] (Plasmodium falciparum, K1, 96 h, read-out: IC50 K1), 700 ± 100 nM; in test [4] (NF54, abstract, read-out: IC50 late stage Pf NF54 gametocytes), 280 nM; in test [4] (NF54 gametocytes, luciferase, 72 h, mean ± SEM, this study, read-out: Late stage IV-V (luc 72 h) IC50), 282 ± 96.2 nM; in test [5] it was 401 nM. The IC50 in [6] (NF54, 96 h) was 820 ± 190 nM. For the same compound, the “Fold change preference ratio EG to LG” value in [2] (setting [11]) amounted to 0.2. Further, the “RI (resistance index) = IC50 K1/IC50 NF54” value in [3] (this study) is reported as 0.85. In addition, the “Fold change preference ratio LG to EG” value in test [4] (this study) is reported as 4.1; in [4] (this study, listed as celastrol) it was “approximately 4”.
On to `C[C@H]1[C@H](N2CCS(=O)(=O)CC2)O[C@@H]2O[C@@]3(C)CC[C@H]4[C@H](C)CC[C@@H]1[C@@]24OO3` [Artemisone, artemisone], for which the IC50 in [7] (NF54 gametocytes, luciferase, 48 h, mean ± SEM, read-out: Immature stage II-III (luc 48 h) IC50) is 1.94 ± 0.11 nM; in test [8] (setting [12]), 1.6 ± 0.4 nM; in test [9] (setting [12]), 1.01 ± 0.19 nM; in test [10], 1.2 nM; in the test with tumour cell lines it was 260 to 95700 nM; in test [6] (NF54, asexual blood stage, SYBR Green I, 96 h, mean ± SEM, this study), 2.32 ± 0.76 nM. For the same compound, in the test with A375 melanoma cells, the IC50 was 95700 nM. In test [7] (setting [11]), the “Fold change preference ratio EG to LG” value is 21.9. Also, in test [8], the “RI = IC50 W2/IC50 NF54” value was 1.36^f. For the same compound, in [9], the “RI (resistance index) = IC50 K1/IC50 NF54” value is listed as 0.85 ^f.

The record behind these values is paper PMC9479156 (Frontiers in Pharmacology, 2022).
